Measured values taken from patent US8420569B2, “Pesticidal mixtures” (BASF SE, priority 2006, dated 2013).

What was measured:
Assay type in all cases: in vivo
[1] = system: vetch aphid (Megoura viciae); test: control of vetch aphid through contact or systemic means, broad bean leaf disks in 24-well microtiter plates; settings: sprayed on leaf disks, 5 days, mortality and fecundity
Procedure: (§1) The analysis of synergism or antagonism between the mixtures or compositions was determined using Colbys equation.
For evaluating control of vetch aphid (Megoura viciae) through contact or systemic means the test unit consisted of 24-well-microtiter plates containing broad bean leaf disks.
The compounds or mixtures were formulated using a solution containing 75% water and 25% DMSO. Different concentrations of formulated compounds or mixtures were sprayed onto the leaf disks at 2.5 μl, using a custom built micro atomizer, at two replications.
(§2) For experimental mixtures in these tests identical volumes of both mixing partners at the desired concentrations respectively, were mixed together.
After application, the leaf disks were air-dried and 5-8 adult aphids placed on the leaf disks inside the microtiter plate wells. The aphids were then allowed to suck on the treated leaf disks and incubated at 23+1° C., 50+5% RH for 5 days. Aphid mortality and fecundity was then visually assessed.
In this test the compound 1-2, and N-(3′,4′-dichloro-5-fluorobiphenyl-2-yl)-3-difluoro-methyl-1-methylpyrazole-4-carboxamide (compound 2.1), and 5-chloro-7-(4-methyl-piperidin-1-yl)-6-(2,4,6-trifluorophenyl)-[1,2,4]triazolo[1,5-a]pyrimidine (compound 2.2) were used.

[2] = system: green peach aphid (Myzus persicae); test: control of green peach aphid through systemic means, artificial diet under membrane in 96-well microtiter plates; settings: pipetted into aphid diet, 3 days, mortality and fecundity
Procedure: as §1
For evaluating control of green peach aphid (Myzus persicae) through systemic means the test unit consisted of 96-well-microtiter plates containing liquid artificial diet under an artificial membrane.
The compounds or mixtures were formulated using a solution containing 75% water and 25% DMSO. Different concentrations of formulated compounds or mixtures were pipetted into the aphid diet, using a custom built pipetter, at two replications.
as §2
After application, 5 to 8 adult aphids were placed on the artificial membrane inside the microtiter plate wells. The aphids were then allowed to suck on the treated aphid diet and incubated at 23+1° C., 50+5% RH for 3 days. Aphid mortality and fecundity was then visually assessed.
In this test the compound 1-2, and 5-chloro-7-(4-methylpiperidin-1-yl)-6-(2,4,6-trifluoro-phenyl)-[1,2,4]triazolo[1,5-a]pyrimidine (compound 2.2) and N-[2-(1,1,2,3,3,3-hexa-fluoropropoxy)-phenyl]-3-difluoromethyl-1-methyl-1H-pyrazole-4-carboxamide (compound 3.1) were used.

[3] = system: boll weevil (Anthonomus grandis); test: control of boll weevil, insect diet with eggs in 24-well microtiter plates; settings: sprayed onto insect diet, 5 days, egg and larval mortality
Procedure: as §1
For evaluating control of boll weevil (Anthonomus grandis) the test unit consisted of 24-well-microtiter plates containing an insect diet and 20-30 A. grandis eggs.
The compounds or mixtures were formulated using a solution containing 75% water and 25% DMSO. Different concentrations of formulated compounds or mixtures were sprayed onto the insect diet at 20 μl, using a custom built micro atomizer, at two replications.
as §2
After application, microtiter plates were incubated at 23+1° C., 50+5% RH for 5 days. Egg and larval mortality was then visually assessed.
In this test the compound I-2 and N-[2-(1,1,2,3,3,3-hexafluoropropoxy)-phenyl]-3-difluoromethyl-1-methyl-1H-pyrazole-4-carboxamide (compound 3.1), and N-(3′,4′,5′-trifluorobiphenyl-2-yl)-1-methyl-3-difluoromethyl-1H-pyrazole-4-carboxamide (compound 3.2) were used.

Structure (SMILES): Cn1cc(C(=O)Nc2ccc(F)cc2-c2ccc(Cl)c(Cl)c2)c(C(F)F)n1 [2.1, N-(3′,4′-dichloro-5-fluorobiphenyl-2-yl)-3-difluoro-methyl-1-methylpyrazole-4-carboxamide]
- Average Control % ([1]; 1000 ppm): 0%

Structure (SMILES): CC1CCN(c2c(-c3c(F)cc(F)cc3F)c(Cl)nc3ncnn23)CC1 [2.2, 5-chloro-7-(4-methyl-piperidin-1-yl)-6-(2,4,6-trifluorophenyl)-[1,2,4]triazolo[1,5-a]pyrimidine]
- Average Control % ([2]; 8 ppm): 0%
- Average Control % ([1]; 40 ppm): 0%

Structure (SMILES): Cn1cc(C(=O)Nc2ccccc2OC(F)(F)C(F)C(F)(F)F)c(C(F)F)n1 (stereo not shown) [3.1, N-[2-(1,1,2,3,3,3-hexafluoropropoxy)-phenyl]-3-difluoromethyl-1-methyl-1H-pyrazole-4-carboxamide]
- Average Control % ([2]; 1000 ppm): 0%
- Average Control % ([3]; 40 ppm): 0%

Structure (SMILES): Cn1cc(C(=O)Nc2ccccc2-c2cc(F)c(F)c(F)c2)c(C(F)F)n1 [3.2, N-(3′,4′,5′-trifluorobiphenyl-2-yl)-1-methyl-3-difluoromethyl-1H-pyrazole-4-carboxamide]
- Average Control % ([3]; 200 ppm): 50%

Structure (SMILES): CNC(=O)c1cc(C#N)cc(C)c1NC(=O)c1cc(Br)nn1-c1ncccc1Cl [I-2]
- Average Control % ([2]; 0.5 ppm): 0%
- Average Control % ([1]; 0.5 ppm): 0%
- Average Control % ([1]; 2.5 ppm): 0%
- Average Control % ([3]; 0.5 ppm): 0%
